Laboratory results reported in US5096909A, “Fucosidase inhibitor” (Monsanto Company, priority 1990, dated 1992).

Columns and labels:
[1] = tested on: digestive α-glucosidase; conditions: cited from earlier work
[2] = tested on: α-glucosidase; conditions: cited from earlier work
[3] = tested on: human immunodeficiency virus; conditions: cited from earlier work
[4] = pKa (Table 1); assay type: physicochemical
[5] = tested on: N-acetyl-β-D-hexosaminidase; assay: Specificity: inhibition of other glycosidases in human liver extract at 1 mM, N-acetyl-β-D-hexosaminidase; assay type: biochemical; conditions: 4-umbelliferyl glycoside substrate 0.5 mM, optimal pH
Procedure: Tissue Post-mortem human liver, which had been stored at -20° C. until required was homogenized in deionized water (50%, w/v) in a Potter-Elvehjem homogenizer and then centrifuged at 37,000 g for 30 min in an MSE 18 centrifuge. The resultant supernatant was used as the source of human glycosidases. A lyophilized extract of liver from Charonia lampas was obtained from Seikagaku Kogyo Co., Japan for the isolation of α-L-fucosidase by the published procedure of Iijima and Egami, J. Biochem. 70, 75-78 (1971).
Enzyme Assays The glycosidase activities in an extract of human liver were assayed by using the appropriate fluorigenic 4-umbelliferyl glycoside substrate (Koch-Light, Haverhill, Suffolk, U.K.) with a concentration of 0.5 mM at the optimal pH for each enzyme [Burditt et al., Biochem. J. 189, 467-473 (1980)]. The specificity of the inhibitors was determined by assaying the glycosidases in the presence of and absence of a 1 mM solution of each compound. The nature of the inhibition of human α-L-fucosidase, the value of Ki determined by using the Dixon graphical procedure and the effect of pH on the inhibition were investigated as described previously by Al Daher et al., Biochem. J. 258, 613-615 (1989). […]

[6] = tested on: mammalian α-L-fucosidases; conditions: cited from earlier work

SMILES: OC[C@H]1N[C@H](CO)[C@@H](O)[C@H](O)[C@H]1O [α-Homonojirimycin]
- inhibition of digestive α-glucosidase activity [1]: potent inhibitor of digestive α-glucosidase activity

SMILES: OC[C@H]1NC[C@H](O)[C@@H](O)[C@@H]1O [deoxynojirimycin (1), deoxynojirimycin]
- α-glucosidase inhibition [2]: α-glucosidase inhibitor
- inhibition of human immunodeficiency virus synctium formation ([3]; syncytium formation): inhibit human immunodeficiency virus synctium formation
- inhibition of human immunodeficiency virus replication ([3]; virus replication): inhibit human immunodeficiency virus synctium formation and virus replication

SMILES: C[C@H]1N[C@@H](CO)[C@@H](O)[C@H](O)[C@@H]1O [(6), 2,6-Imino-2,6,7-trideoxy-D-glycero-D-gluco-heptitol]
- pKa [4]: 7.7

SMILES: C[C@@H]1NC[C@@H](O)[C@H](O)[C@@H]1O [DFJ, 1,5-Dideoxy-1,5-imino-L-fucitol]
- Other specificities (% inhibition at 1 mM): N-acetyl-β-D-hexosaminidase [5]: 59%
- pKa [4]: 8.4
- inhibition of a number of mammalian α-L-fucosidases [6]: very powerful and highly specific inhibitor of a number of mammalian α-L-fucosidases
